Columns and labels:
PtoMBD [1] = biological target: T1, PtoMBD (Picrophilus oshimae, UniProt Q6L1T9, D309T); test: radio-TLC activity assay; type: biochemical; conditions: labelled compound; 1 μM GGPP, 5 mM MgCl2, sodium acetate pH 5.5, 60 °C
T1 construct: gene PTO0478

PtoMBD [2] = biological target: T2, PtoMBD (Picrophilus oshimae, UniProt Q6L1T9, R218A/R220A); test: radio-TLC activity assay; type: biochemical; conditions: labelled compound; 1 μM GGPP, 5 mM MgCl2, sodium acetate pH 5.5, 60 °C
T2 construct: gene PTO0478
T2 sequence (Q6L1T9 whole entry R218A/R220A): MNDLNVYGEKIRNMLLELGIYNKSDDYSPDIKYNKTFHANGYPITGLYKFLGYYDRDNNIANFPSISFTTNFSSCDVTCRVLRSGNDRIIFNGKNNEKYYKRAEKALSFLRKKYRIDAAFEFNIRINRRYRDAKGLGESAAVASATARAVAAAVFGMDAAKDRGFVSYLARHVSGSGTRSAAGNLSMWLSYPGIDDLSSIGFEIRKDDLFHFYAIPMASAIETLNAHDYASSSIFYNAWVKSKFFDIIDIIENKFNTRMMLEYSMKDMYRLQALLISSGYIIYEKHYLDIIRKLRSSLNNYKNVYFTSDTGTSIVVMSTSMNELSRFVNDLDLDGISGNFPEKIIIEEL

PtoMBD [3] = biological target: T3, PtoMBD (Picrophilus oshimae, UniProt Q6L1T9, D309N); test: radio-TLC activity assay; type: biochemical; conditions: labelled compound; 1 μM GGPP, 5 mM MgCl2, sodium acetate pH 5.5, 60 °C
T3 construct: gene PTO0478
T3 sequence (Q6L1T9 whole entry D309N): as the sequence (Q6L1T9 whole entry R218A/R220A) above, with A218R, A220R, D309N counted along it

PtoMBD [4] = biological target: T4, PtoMBD (Picrophilus oshimae, UniProt Q6L1T9); test: X-ray crystal structure, […] Å; type: binding; conditions: endogenous E. coli ligand, identity assumed from density (oleic acid fitted), low occupancy, subunit A only; cavity overlapping ATP site of DMD
T4 construct: gene PTO0478
T4 sequence (Q6L1T9 1-349): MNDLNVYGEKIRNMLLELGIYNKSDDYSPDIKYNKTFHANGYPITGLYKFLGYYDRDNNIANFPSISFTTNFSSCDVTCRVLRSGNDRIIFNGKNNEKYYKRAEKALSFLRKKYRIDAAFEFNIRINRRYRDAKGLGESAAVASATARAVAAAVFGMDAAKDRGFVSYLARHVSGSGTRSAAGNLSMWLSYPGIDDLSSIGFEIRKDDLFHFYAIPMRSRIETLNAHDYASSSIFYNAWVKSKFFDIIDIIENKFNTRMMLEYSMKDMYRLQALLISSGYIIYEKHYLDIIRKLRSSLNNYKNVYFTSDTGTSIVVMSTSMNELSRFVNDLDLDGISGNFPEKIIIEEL

[5] = biological target: the molecule itself; test: SEC; HiLoad 16/600 Superdex 200 prep grade, 20 mM sodium phosphate pH 7.4, 500 mM NaCl, 0.6 ml/min; calibrated with gel filtration markers

T1 sequence (Q6L1T9 whole entry D309T): as the sequence (Q6L1T9 whole entry R218A/R220A) above, with A218R, A220R, D309T counted along it

With `C[C@@](CCOP(=O)(O)O)(CC(=O)O)OP(=O)(O)O` [MVA3,5BP] the MBD activity (PtoMBD [1]) was “mutants D309T and D309N leads to the complete loss of MBD activity”, the MBD activity (PtoMBD [2]) was “the R218A/R220A double mutant was as active as the WT” and the MBD activity (PtoMBD [3]) was “mutants D309T and D309N leads to the complete loss of MBD activity”.

In the case of `CCCCCCCC/C=C\CCCCCCCC(=O)O` [OLA], the “X-ray crystal structure, 2.2 Å” value (PtoMBD [4]) is reported as “Oleic acid (OLA) fitted well in the electron density”.

B1: Picrophilus torridus mevalonate 3,5-bisphosphate decarboxylase (enzyme)
chain: MNDLNVYGEKIRNMLLELGIYNKSDDYSPDIKYNKTFHANGYPITGLYKFLGYYDRDNNIANFPSISFTTNFSSCDVTCRVLRSGNDRIIFNGKNNEKYYKRAEKALSFLRKKYRIDAAFEFNIRINRRYRDAKGLGESAAVASATARAVAAAVFGMDAAKDRGFVSYLARHVSGSGTRSAAGNLSMWLSYPGIDDLSSIGFEIRKDDLFHFYAIPMRSRIETLNAHDYASSSIFYNAWVKSKFFDIIDIIENKFNTRMMLEYSMKDMYRLQALLISSGYIIYEKHYLDIIRKLRSSLNNYKNVYFTSDTGTSIVVMSTSMNELSRFVNDLDLDGISGNFPEKIIIEEL
notes: Mevalonate 3,5-bisphosphate decarboxylase of Picrophilus torridus, gene pto0478; calculated mass of the tagged protein 42,186 Da; also called PtoMBD; MBD; source: E. coli BL21(DE3), pET28a(+), purified (heat treatment, Ni-NTA, HP-Q for crystallization; heat treatment and Ni-NTA only for size-exclusion chromatography); not shown: polyhistidine, N-terminal, kept
With B1 the “stoichiometry N” value [5] was 2.
